Test results as given in patent US20260234164A1, “BIPHENYL COMPOUND AS IMMUNOMODULATOR, PREPARATION METHOD THEREFOR AND USE THEREOF” (SHENZHEN CHIPSCREEN BIOSCIENCES CO., LTD., priority 2021, published 2026).

Tests used:
[1] = target: T1, PD-1/PD-L1 binding (Homo sapiens, UniProt Q9NZQ7); experiment: HTRF inhibition of PD-1/PD-L1 binding in vitro; details: His-PD-1 100 nM, PD-L1-Fc 2 nM, read-out: IC50 inhibiting PD-1/PD-L1 binding in vitro
T1 construct: purchased Sino Biological Inc. 10084-H02H-100 (PD-L1-Fc); 10377-H08H-50 (His-PD-1)
Excerpt: Homogeneous Time-Resolved Fluorescence (HTRF): This method used the recombinant human PD-L1 protein fused to express the hFc tag and the recombinant human PD-1 protein fused to express the His tag, both of which were interacting ligands and receptors. When the anti-hFc antibody containing Eu element chelation marker and the anti-His antibody labeled with XL665 fluorescein were bound with the above two corresponding labels, and excited by a laser with a wavelength of 320 nm, the ligand-receptor binding enabled the energy to be transferred from the Eu element to the XL665 fluorescein, which was excited to emit light at a wavelength of 665 nm. However, when an inhibitor of the interaction between PD-L1 and PD-1 was added, the binding of the ligand to the receptor was destroyed, so that the distance between Eu and XL665 was far away, the energy cannot be transferred, and XL665 would not be excited.
(§1) Recombinant human PD-1 protein with His tag (His-PD-1 protein, Cat #: 10377-H08H-50), and recombinant human PD-L1-Fc fusion protein (PD-L1-Fc fusion protein, Cat #: 10084-H02H-100) were purchased from Sino Biological Inc., anti-hFc-Eu^+ antibody and anti-His-XL665 antibody were purchased from Cisbio Company, and other related reagents such as dilution buffer (Diluent buffer 5, Cat #: 62DL5DDC), detection buffer (PPI-Europium detection buffer, Cat #: 61DB9RDF) were purchased from Cisbio Company. Fluorescence detection instrument Tecan (Spark 10 M) was purchased from Switzerland Tecan Company.
(§2) (1) Experimental preparation: The test compound was diluted with dilution buffer into different concentration gradients (the highest final concentration in 20 μL final reaction system was 10 μM), His-PD-1 protein was diluted to 800 nM (the final concentration in 20 μL final reaction system was 100 nM), and the PD-L1-Fc fusion protein was diluted to 16 nM (final concentration was 2 nM). The anti-His-XL665 antibody and anti-hFc-Eu^3+ antibody were respectively diluted 20 times and 100 times using the detection buffer according to the reagent requirements.
(§3) (2) 5 μL of test compound, 2.5 μL of PD-L1-Fc fusion protein and 2.5 μL of His-PD-1 protein solution were mixed, and incubated at room temperature for 15 min. Then the system was added with 5 μL of anti-His-XL665 antibody and 5 μL of anti-hFc-Eu^3+ antibody, incubated for another 3 h, and then detected.
(3) When detecting the reaction, a control group was also provided, including a 0% inhibition positive control without adding test compounds and a 100% inhibition negative control without adding PD-1 protein. All detections were performed with duplicates.
(§4) (4) The fluorescence signal of each well was measured using a fluorescence detector Tecan (Spark 10M) at an excitation wavelength of 320 nm, and emission wavelengths of 620 nm and 665 nm, respectively. The intensity of the mutual binding of PD-1 and PD-L1 referred to the ratio of fluorescence signals Em665/Em620.
(§5) (5) The binding inhibition rate of the test compound was calculated as follows: Inhibition rate (%)=[1−(Fluorescence signal ratio of detection well-fluorescence signal ratio of 100% inhibition negative control)]/(fluorescence signal ratio of 0% inhibition positive control-fluorescence signal ratio of 100% inhibition negative control)×100%. After calculating the inhibition rate on PD-1/PD-L1 binding of the test compounds with different concentration gradients, the 50% inhibitory concentration (IC50) was calculated.

[2] = target: T2, CD80/PD-L1 binding (Homo sapiens, UniProt Q9NZQ7); experiment: HTRF inhibition of CD80/PD-L1 binding in vitro; details: His-CD80 100 nM, PD-L1-Fc 2 nM, read-out: IC50 inhibiting CD80/PD-L1 binding in vitro
T2 construct: purchased Sino Biological Inc. 10084-H02H-100 (PD-L1-Fc); 10698-H08H-100 (His-CD80)
Excerpt: In addition to PD-1, PD-L1 can also exert immunosuppressive activity by binding to CD80. Similarly, in vitro experiments of binding or binding inhibition of CD80 and PD-L1 can also be measured by homogeneous time-resolved fluorescence (HTRF). When the anti-hFc-Eu^3+ antibody and anti-His-XL665 antibody were bound to the hFC tag fused to PD-L1 and the His tag fused to CD80 respectively, and excited with a 320 nm wavelength laser, the binding of PD-L1 and CD80 enabled energy to be transferred from the Eu element to the XL665 fluorescein, which was excited to emit light. When the inhibitor of the interaction between PD-L1 and CD80 was added, the combination of the two was destroyed, so that the distance between Eu and XL665 was far away, the energy cannot be transferred, and XL665 would not be excited.
as §1, with “CD80” for “PD-1”, “(His-CD80” for “(His-PD-1”, “10698-H08H-100),” for “10377-H08H-50),”, “anti-hFc-Eu^3+” for “anti-hFc-Eu^+”
as §2, with “His-CD80” for “His-PD-1”
as §3, with “Hid-CD80” for “PD-L1-Fc fusion”, “[…]” for “His-PD-1”
(3) When detecting the reaction, a control group was provided, including a 0% inhibition positive control without adding test compounds and a 100% inhibition negative control without adding CD-80 protein. All detections were performed with duplicates.
as §4, with “CD80” for “PD-1”
as §5, with “CD80/PD-L1” for “PD-1/PD-L1”

T2 sequence (Q9NZQ7 19-239 limits assumed): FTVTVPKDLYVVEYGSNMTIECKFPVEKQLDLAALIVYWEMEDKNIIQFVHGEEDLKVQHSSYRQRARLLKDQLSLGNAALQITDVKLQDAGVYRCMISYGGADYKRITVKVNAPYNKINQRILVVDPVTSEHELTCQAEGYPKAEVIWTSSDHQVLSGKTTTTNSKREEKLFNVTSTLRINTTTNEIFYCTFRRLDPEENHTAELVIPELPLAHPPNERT
T1 sequence (Q9NZQ7 19-239 limits assumed): as above

| IC50 [1] [nM] | IC50 [2] [nM] | Compound |
| --- | --- | --- |
| 1.52 | 1.09 | [2H]C([2H])([2H])OCC12CCC(CCN3CCc4c(nc(C(=O)Nc5cccc(-c6cccc(NC(=O)c7nc8c(n7C)CCN(CCC79CCC(C(=O)O)(CC7)C9)C8)c6Cl)c5F)n4C)C3)(CC1)C2 (single isomer, unassigned) [Compound I-2, 4-(2-(2-((2-chloro-2′-fluoro-3′-(5-(2-(4-((methoxy-d3)methyl)bicyclo[2.2.1]heptane-1-y 1)ethyl)-1-methyl-4,5,6,7-tetrahydro-1H-imidazo[4,5-c]pyridine-2-carboxamido)-[1,1′-biphenyl]-3-yl)carbamoyl)-1-methyl-1,4,6,7-tetrahydro-5H-imidazo[4,5-c]pyridin-5-yl)ethyl)bicyclo[2.2.1]heptane-1-carboxylic acid] |
| 1.38 | 1.94 | [2H]C([2H])([2H])OCC12CCC(CCN3CCc4c(nc(C(=O)Nc5cccc(-c6cccc(NC(=O)c7nc8c(n7C([2H])([2H])[2H])CCN(CCC79CCC(C(=O)O)(CC7)C9)C8)c6Cl)c5F)n4C([2H])([2H])[2H])C3)(CC1)C2 (single isomer, unassigned) [Compound I-7, 4-(2-(2-((2-chloro-2′-fluoro-3′-(5-(2-(4-((methoxy-d3)methyl)bicyclo[2.2.1]heptane-1-yl)ethyl)-1-(methyl-d3)-4,5,6,7-tetrahydro-1H-imidazo[4,5-c]pyridine-2-carboxamido)-[1,1′-biphenyl]-3-yl)carbamoyl)-1-(methyl-d3)-1,4,6,7-tetrahydro-5H-imidazo[4,5-c]pyridin-5-yl)ethyl)bicyclo[2.2.1]heptane-1-carboxylic acid] |
| 0.72 | 0.58 | [2H]C([2H])([2H])OCC12CCC(CCN3CCc4c(nc(C(=O)Nc5cccc(-c6cccc(NC(=O)c7nc8c(n7C)CCN(CCC79CCC(C(=O)O)(CC7)C9)C8)c6Cl)c5Cl)n4C)C3)(CC1)C2 [Compound I-1, 4-(2-(2-((2,2′-dichloro-3′-(5-(2-(4-((methoxy-d3)methyl)bicyclo[2.2.1]heptane-1-yl)ethyl)-1-methyl-4,5,6,7-tetrahydro-1H-imidazo[4,5-c]pyridine-2-carboxamido)-[1,1′-biphenyl]-3-yl)carbamoyl)-1-methyl-1,4,6,7-tetrahydro-5H-imidazo[4,5-c]pyridin-5-yl)ethyl)bicyclo[2.2.1]heptane-1-carboxylic acid] |
| 2.8 | 1.75 | [2H]C([2H])([2H])OCC12CCC(CCN3CCc4c(nc(C(=O)Nc5cccc(-c6cccc(NC(=O)c7nc8c(n7C)CCN(CCC79CCC(C(=O)O)(CC7)C9)C8)c6Cl)c5C)n4C)C3)(CC1)C2 [Compound I-4, 4-(2-(2-((2-chloro-3′-(5-(2-(4-((methoxy-d3)methyl)bicyclo[2.2.1]heptane-1-yl)ethyl)-1-methyl-4,5,6,7-tetrahydro-1H-imidazo[4,5-c]pyridine-2-carboxamido)-2′-methyl-[1,1′-biphenyl]-3-yl)carbamoyl)-1-methyl-1,4,6,7-tetrahydro-5H-imidazo[4,5-c]pyridin-5-yl)ethyl)bicyclo[2.2.1]heptane-1-carboxylic acid] |

The next lines start with the molecule.

| Compound | IC50 [1] [nM] | IC50 [2] [nM] |
| --- | --- | --- |
| [2H]C([2H])([2H])n1c(C(=O)Nc2cccc(-c3cccc(NC(=O)c4nc5c(n4C([2H])([2H])[2H])CCN(CCC46CCC(C(=O)O)(CC4)C6)C5)c3Cl)c2F)nc2c1CCN(CCC13CCC(COC)(CC1)C3)C2 (single isomer, unassigned) [Compound I-8, 4-(2-(2-((2-chloro-2′-fluoro-3′-(5-(2-(4-(methoxymethyl)bicyclo[2.2.1]heptane-1-yl)ethyl)-1-(methyl-d3)-4,5,6,7-tetrahydro-1H-imidazo[4,5-c]pyridine-2-carboxamido)-[1,1′-biphenyl]-3-yl)carbamoyl)-1-(methyl-d3)-1,4,6,7-tetrahydro-5H-imidazo[4,5-c]pyridin-5-yl)ethyl)bicyclo[2.2.1]heptane-1-carboxylic acid] | 1.63 | 1.77 |
| [2H]c1c([2H])c(NC(=O)c2nc3c(n2C)CCN(CCC24CCC(COC([2H])([2H])[2H])(CC2)C4)C3)c(F)c(-c2c([2H])c([2H])c([2H])c(NC(=O)c3nc4c(n3C)CCN(CCC35CCC(C(=O)O)(CC3)C5)C4)c2Cl)c1[2H] (single isomer, unassigned) [Compound I-14, 4-(2-(2-((2-chloro-2′-fluoro-3′-(5-(2-(4-((methoxy-d3)methyl)bicyclo[2.2.1]heptane-1-y 1)ethyl)-1-methyl-4,5,6,7-tetrahydro-1H-imidazo[4,5-c]pyridine-2-carboxamido)-[1,1′-biphenyl]-3-yl-4,4′,5,5′,6,6′-d6)carbamoyl)-1-methyl-1,4,6,7-tetrahydro-5H-imidazo[4,5-c]pyridin-5-yl)ethyl)bicyclo[2.2.1]heptane-1-carboxylic acid] | 0.51 | 0.37 |
| [2H]C([2H])([2H])OCC12CCC(CCN3CCc4c(nc(C(=O)Nc5cccc(-c6cccc(NC(=O)c7nc8c(n7C)CCN(CCC79CCC(C(=O)O)(CC7)C9)C8)c6C)c5Cl)n4C)C3)(CC1)C2 [Compound I-3, 4-(2-(2-((2′-chloro-3′-(5-(2-(4-((methoxy-d3)methyl)bicyclo[2.2.1]heptane-1-yl)ethyl)-1-methyl-4,5,6,7-tetrahydro-1H-imidazo[4,5-c]pyridine-2-carboxamido)-2-methyl-[1,1′-biphenyl]-3-yl)carbamoyl)-1-methyl-1,4,6,7-tetrahydro-5H-imidazo[4,5-c]pyridin-5-yl)ethyl)bicyclo[2.2.1]heptane-1-carboxylic acid] | 2.9 | 1.78 |
